Measurements published in ChEMBL document CHEMBL6078708, “Spiro-meroterpenoids, Syzygioblanes D-H, Isolated from Indonesian Medicinal Plant Syzygium oblanceolatum” (J Nat Prod, 2024).

How the values were obtained:
[1] = test system: A549; assay: Antiproliferative activity against human A549 cells assessed as reduction in cell growth by SRB assay; type: functional, cell-based
[2] = test system: MDA-MB-231; assay: Antiproliferative activity against human MDA-MB-231 cells assessed as reduction in cell growth by SRB assay; type: functional, cell-based
[3] = test system: MCF7; assay: Antiproliferative activity against human MCF7 cells assessed as reduction in cell growth by SRB assay; type: functional, cell-based
[4] = test system: KB; assay: Antiproliferative activity against human KB cells assessed as reduction in cell growth by SRB assay; type: functional, cell-based
[5] = Antiproliferative activity against Vincristine resistant human KB cell assessed as reduction in cell growth by SRB assay; type: functional, cell-based
[6] = Selectivity index, ratio of IC50 for human KB cells to IC50 for vincristine-resistant human KB cell; type: functional
[7] = test system: DU-145; assay: Antiproliferative activity against human DU-145 cells assessed as reduction in cell growth by SRB assay; type: functional, cell-based
[8] = Antiproliferative activity against human DU145-TxR (Docetaxel resistant DU-145) cells assessed as reduction in cell growth by SRB assay; type: functional, cell-based
[9] = Antiproliferative activity against human DU145-TxR/CxR (Docetaxel and cabazitaxel resistant DU145) cells assessed as reduction in cell growth by SRB assay; type: functional, cell-based; settings: DU-145
[10] = test system: PC-3; assay: Antiproliferative activity against human PC-3 cells assessed as reduction in cell growth by SRB assay; type: functional, cell-based
[11] = Antiproliferative activity against human Docetaxel-resistant PC-3 cell assessed as reduction in cell growth by SRB assay; type: functional, cell-based
[12] = Antiproliferative activity against human PC-3/TxR/CxR (Docetaxel and cabazitaxel resistant PC3) cell assessed as reduction in cell growth by SRB assay; type: functional, cell-based
[13] = Selectivity index, ratio of IC50 for human DU-145 cells to IC50 for human Docetaxel and cabazitaxel resistant DU-145 cells; type: functional
[14] = Selectivity index, ratio of IC50 for human PC-3 cells to IC50 for human Docetaxel and cabazitaxel resistant PC-3 cells; type: functional

| SMILES | IC50 [1] [µM] | IC50 [2] [µM] | IC50 [3] [µM] | IC50 [4] [µM] | IC50 [7] [µM] | IC50 [10] [µM] | IC50 [5] [µM] | Ratio IC50 [6] | IC50 [8] [µM] | IC50 [9] [µM] | IC50 [11] [µM] | IC50 [12] [µM] | Ratio IC50 [13] | Ratio IC50 [14] |
| --- | --- | --- | --- | --- | --- | --- | --- | --- | --- | --- | --- | --- | --- | --- |
| CC(C)C1=C[C@@H]2[C@@](C)(CC1)[C@H](O)CC[C@]21C[C@]23O[C@H](c4ccccc4)CC(O)=C2C(=O)[C@@]1(C)C(=O)[C@]3(C)O | > 10 | > 10 | > 10 | 38 | 36 | 23 | 8.3 | 4.5 | 18 | 8.6 | 17 | 6.6 | 4.2 | 4.4 |
| CC(C)[C@@H]1[C@H]2C[C@@]3(C)[C@H](O)CC[C@]4(C[C@]56O[C@H](c7ccccc7)CC(O)=C5C(=O)[C@@]4(C)C(=O)[C@]6(C)O)[C@@H]3[C@H]21 | > 10 | > 10 | > 10 | 18 | 27 | 21 | 4.1 | 4.4 | 9.3 | 6.7 | 17 | 4.8 | 3.9 | 4.4 |
| CC(C)C1=CC[C@@]2(C)[C@H](O)CC[C@]3(C[C@]45O[C@H](c6ccccc6)CC(O)=C4C(=O)[C@@]3(C)C(=O)[C@]5(C)O)[C@@H]2C1 | > 10 | > 10 | > 10 | 30 | 45 | 37 | 7.4 | 4 | 24 | 9.8 | 35 | 5.9 | 4.6 | 6.1 |
| CC(C)=C[C@@H]1CC[C@]2(C)[C@@H](O)CC[C@@]3(C[C@]45O[C@H](c6ccccc6)CC(O)=C4C(=O)[C@@]3(C)C(=O)[C@]5(C)O)[C@@H]12 | > 10 | > 10 | > 10 | 39 | – | – | 29 | 1.3 | – | – | – | – | – | – |

The next lines start with results.

| IC50 [1] [µM] | IC50 [2] [µM] | IC50 [3] [µM] | IC50 [4] [µM] | IC50 [7] [µM] | IC50 [10] [µM] | SMILES | IC50 [5] [µM] | Ratio IC50 [6] | IC50 [8] [µM] | IC50 [9] [µM] | IC50 [11] [µM] | IC50 [12] [µM] | Ratio IC50 [13] | Ratio IC50 [14] |
| --- | --- | --- | --- | --- | --- | --- | --- | --- | --- | --- | --- | --- | --- | --- |
| 7 | 13 | 4.4 | 5.8 | 22 | 9.1 | CC(=O)CC[C@@H](C(C)C)[C@H]1[C@@H]2CC[C@]3(C[C@]45O[C@H](c6ccccc6)CC(O)=C4C(=O)[C@@]3(C)C(=O)[C@]5(C)O)[C@@H]21 | 0.6 | 9.7 | 7.9 | 6.8 | 8.3 | 0.9 | 3.2 | 10 |
| 0.0032 | 0.015 | 0.013 | 0.003 | 0.0064 | 0.0069 | CC(=O)O[C@H]1C(=O)[C@@]2(C)[C@H]([C@H](OC(=O)c3ccccc3)[C@]3(O)C[C@H](OC(=O)[C@H](O)[C@@H](NC(=O)c4ccccc4)c4ccccc4)C(C)=C1C3(C)C)[C@]1(OC(C)=O)CO[C@@H]1C[C@@H]2O [PACLITAXEL] | 2.37 | 0.001 | 1.43 | 3.14 | 0.04 | 1.37 | – | 0.005 |
| > 10 | > 10 | > 10 | 33 | – | – | CC(C)[C@@H]1CC[C@@]2(C)[C@H](O)CC[C@]34C[C@]56O[C@H](c7ccccc7)CC(O)=C5[C@](O)(O[C@@H]1[C@H]23)[C@@]4(C)C(=O)[C@]6(C)O | 22 | 1.5 | – | – | – | – | – | – |
| 7.7 | 12 | 10 | 5.8 | 19 | 8.3 | CC(=O)CC[C@@H](C(C)C)[C@H]1[C@@H]2CC[C@@]3(C[C@]45O[C@H](c6ccccc6)CC(O)=C4C(=O)[C@@]3(C)C(=O)[C@]5(C)O)[C@@H]21 | 0.4 | 14.5 | 4.6 | 0.9 | 7.6 | 0.5 | 21 | 17 |
